Measured values reported in US20100316529A1, “Anti-Microbial Systems and Methods” (priority 2001, published 2010).
Several values for one entry are separate records, joined by “and”; a condition that tells them apart may be missing. Equal entries are not always repeated.

How the values were obtained:
[1] = test system: Ent. faecalis; test: EDTA salt dilution test, MIC/MBC; assay type: cell-based
Protocol: (§1) Protocol one: Broth dilutions:
(§2) Inoculate a 25 ml nutrient broth (Oxoid No2) in a sterile universal container with one of the following organisms; Pseudomonas aeruginosa, Proteus Mirabilis, E. coli, Klebsiella pneumoniae, Staph aureus, Coagulase negative staphylococci, Enterococcus faecalis or MRSA.
(§3) Incubate the broth at 37° C. overnight.
(§4) To make these concentrations put the EDTA needed for 10 mLs in only 9 mLs of broth in sterile universal containers, as this will be diluted further when the organisms are added.
(§5) Dilute the overnight broth cultures to 10^7 organisms/mL using more sterile nutrient broth.
(§6) Add 1 mL of this diluent to each of the EDTA series broths. This gives a final concentration of 10^6 organism/mL in the EDTA broths.
(§7) Incubate for 18 hours at 37° C.
(§8) Next day visually read the MIC's by observing the turbidity of the broths.
(§9) Plate out 1 uL of each dilution onto fresh blood agar plate and spread using a sterile plastic spreader.
(§10) Incubate overnight at 37° C.
(§11) Next day read the MBC's by performing colony counts.

[2] = test system: Kleb. pnemoniae; test: EDTA salt dilution test, MIC/MBC; assay type: cell-based; settings: two entries
Protocol: as §1, §2, §3, §4, §5, §6, §7, §8, §9, §10, §11

[3] = test system: MRSA; test: EDTA salt dilution test, MIC/MBC; assay type: cell-based; settings: five entries, Exhibit A2
Protocol: as §1, §2, §3, §4, §5, §6, §7, §8, §9, §10, §11

[4] = test system: Proteus mirabilis; test: EDTA salt dilution test, MIC/MBC; assay type: cell-based; settings: two entries
Protocol: as §1, §2, §3, §4, §5, §6, §7, §8, §9, §10, §11

[5] = test system: Pseudomonas aeruginosa; test: EDTA salt dilution test, MIC/MBC; assay type: cell-based; settings: two entries
Protocol: as §1, §2, §3, §4, §5, §6, §7, §8, §9, §10, §11

[6] = test system: Pseudomonas sp.; test: EDTA salt dilution test, MIC/MBC; assay type: cell-based
Protocol: as §1, §2, §3, §4, §5, §6, §7, §8, §9, §10, §11

[7] = test system: S. aureus; test: EDTA salt dilution test, MIC/MBC; assay type: cell-based; settings: five entries, Exhibit A2
Protocol: as §1, §2, §3, §4, §5, §6, §7, §8, §9, §10, §11

[8] = test system: S. capitis; test: EDTA salt dilution test, MIC/MBC; assay type: cell-based; settings: two entries, Exhibit A2
Protocol: as §1, §2, §3, §4, §5, §6, §7, §8, §9, §10, §11

[9] = test system: S. epidermidis; test: EDTA salt dilution test, MIC/MBC; assay type: cell-based; settings: two entries
Protocol: as §1, §2, §3, §4, §5, §6, §7, §8, §9, §10, §11

[10] = test system: S. lentus; test: EDTA salt dilution test, MIC/MBC; assay type: cell-based
Protocol: as §1, §2, §3, §4, §5, §6, §7, §8, §9, §10, §11

[11] = test system: S. simulans; test: EDTA salt dilution test, MIC/MBC; assay type: cell-based
Protocol: as §1, §2, §3, §4, §5, §6, §7, §8, §9, §10, §11

[12] = test system: S. xylosus; test: EDTA salt dilution test, MIC/MBC; assay type: cell-based
Protocol: as §1, §2, §3, §4, §5, §6, §7, §8, §9, §10, §11

[13] = test system: VRE; test: EDTA salt dilution test, MIC/MBC; assay type: cell-based; settings: two entries
Protocol: as §1, §2, §3, §4, §5, §6, §7, §8, §9, §10, §11

[14] = test system: Ent. faeculm; test: EDTA salt dilution test, MIC/MBC; assay type: cell-based
[15] = test system: Kleb. oxytoca; test: EDTA salt dilution test, MIC/MBC; assay type: cell-based
[16] = test system: Kleb. ornitholytica; test: EDTA salt dilution test, MIC/MBC; assay type: cell-based
[17] = test system: Ent. cloacae; test: EDTA salt dilution test, MIC/MBC; assay type: cell-based; settings: three entries
[18] = test system: Steno. maltophilia; test: EDTA salt dilution test, MIC/MBC; assay type: cell-based
[19] = test system: Cornyeform amycolatum; test: EDTA salt dilution test, MIC/MBC; assay type: cell-based
[20] = test system: Coryneform strait/amy; test: EDTA salt dilution test, MIC/MBC; assay type: cell-based
[21] = test system: Acinetobacter baumanii; test: EDTA salt dilution test, MIC/MBC; assay type: cell-based; settings: two entries, Exhibit A2
[22] = test system: Proteus vulgaris; test: EDTA salt dilution test, MIC/MBC; assay type: cell-based
[23] = test system: C. lucitaniae; test: EDTA agar dilution method, yeasts, MIC/MBC; assay type: cell-based; settings: Exhibit C
Excerpt: (§12) Protocol 3: Agar dilutions.
Do this until all the media is used up.

[24] = test system: C. albicans; test: EDTA agar dilution method, yeasts, MIC/MBC; assay type: cell-based; settings: three entries, Exhibit C
Protocol: (§13) The bactericidal effects were measured as the Minimum Bactericidal Concentration (MBC), while the inhibitory effects were measured as the Minimum Inhibitory Concentration (MIC). In each case, the concentration was measured as milligrams of the disinfectant salt per milliliter of water (mg/ml).
as §12
(§14) Prepare nutrient agar plates with increasing concentrations of EDTA, 0, 0.5, 1, 1.5, 2, 4, 6, 8, 10, 15, 20, 25, 30 mg/mL, using the following method. • Pour 300 mL distilled water into a sterile glass bottle. • Add the appropriate amount of EDTA. This is the concentration desired ×300, in grams. • Once the EDTA has fully dissolved, add 8.4 g of Nutrient agar powder (Oxoid). Mix thoroughly. • Do this for each concentration of EDTA required. […] Do this until all the media is used up. Label the plates with the concentration of EDTA they contain. • These plates can then be stored, until they are needed, in a 4° C. fridge. • Use an automatic plate inoculator to inoculate each plate with 21 organisms.

[25] = test system: C. glabrata; test: EDTA agar dilution method, yeasts, MIC/MBC; assay type: cell-based; settings: two entries, Exhibit C
Protocol: as §13, §12, §14

[26] = test system: C. guilliermondii; test: EDTA agar dilution method, yeasts, MIC/MBC; assay type: cell-based; settings: Exhibit C
Protocol: as §13, §12, §14

[27] = test system: C. parapsilosis; test: EDTA agar dilution method, yeasts, MIC/MBC; assay type: cell-based; settings: Exhibit C
Protocol: as §13, §12, §14

[28] = test system: C. tropicalis; test: EDTA agar dilution method, yeasts, MIC/MBC; assay type: cell-based; settings: Exhibit C
Protocol: as §13, §12, §14

[29] = test system: variety of yeasts

O=C([O-])CN(CCN(CC(=O)[O-])CC(=O)[O-])CC(=O)[O-].[Na+].[Na+].[Na+].[Na+] [Tetrasodium EDTA]
MBC, minimum concentration required to kill an entire population ([1]; Exhibit A1): 10000 µg/mL
MIC, minimum concentration required to inhibit growth ([1]; Exhibit A2): 1000 µg/mL
MBC, minimum concentration required to kill an entire population ([2]; Exhibit A1): 15000 µg/mL
MIC, minimum concentration required to inhibit growth ([2]; Exhibit A2): 8000 µg/mL and 4000 µg/mL
MIC, minimum concentration required to inhibit growth [3]: 1000 µg/mL
MBC, minimum concentration required to kill an entire population ([4]; Exhibit A1): 20000 µg/mL
MIC, minimum concentration required to inhibit growth ([4]; Exhibit A2): 1000 µg/mL
MBC, minimum concentration required to kill an entire population ([5]; Exhibit A1): 20000 µg/mL
MIC, minimum concentration required to inhibit growth ([5]; Exhibit A2): 2000 µg/mL
MBC, minimum concentration required to kill an entire population ([6]; Exhibit A1): 30000 µg/mL
MIC, minimum concentration required to inhibit growth ([6]; Exhibit A2): 2000 µg/mL
MIC, minimum concentration required to inhibit growth [7]: <500 µg/mL and 1000 µg/mL
MIC, minimum concentration required to inhibit growth [8]: 1000 µg/mL and <500 µg/mL
MBC, minimum concentration required to kill an entire population ([9]; Exhibit A1): 1000 µg/mL and 2000 µg/mL
MIC, minimum concentration required to inhibit growth ([9]; Exhibit A2): 1000 µg/mL
MBC, minimum concentration required to kill an entire population ([10]; Exhibit A1): 30000 µg/mL
MIC, minimum concentration required to inhibit growth ([10]; Exhibit A2): 1000 µg/mL
MBC, minimum concentration required to kill an entire population ([11]; Exhibit A1): 30000 µg/mL
MIC, minimum concentration required to inhibit growth ([11]; Exhibit A2): 1000 µg/mL
MBC, minimum concentration required to kill an entire population ([12]; Exhibit A1): 25000 µg/mL
MIC, minimum concentration required to inhibit growth ([12]; Exhibit A2): <500 µg/mL
MBC, minimum concentration required to kill an entire population ([13]; Exhibit A1): 15000 µg/mL and >30000 µg/mL
MIC, minimum concentration required to inhibit growth ([13]; Exhibit A2): 1000 µg/mL
MIC, minimum concentration required to inhibit growth ([14]; Ent. faecuim, Exhibit A2): <500 µg/mL
MBC, minimum concentration required to kill an entire population ([14]; Ent. faeculm, Exhibit A1): >30000 µg/mL
MBC, minimum concentration required to kill an entire population ([15]; Exhibit A1): 8000 µg/mL
MIC, minimum concentration required to inhibit growth ([15]; Exhibit A2): 4000 µg/mL
MBC, minimum concentration required to kill an entire population ([16]; Exhibit A1): 30000 µg/mL
MIC, minimum concentration required to inhibit growth ([16]; Exhibit A2): 4000 µg/mL
MBC, minimum concentration required to kill an entire population ([17]; Exhibit A1): 20000 µg/mL
MIC, minimum concentration required to inhibit growth ([17]; Exhibit A2): 8000 µg/mL and 10000 µg/mL
MBC, minimum concentration required to kill an entire population ([18]; Exhibit A1): 4000 µg/mL
MIC, minimum concentration required to inhibit growth ([18]; Exhibit A2): 1000 µg/mL
MBC, minimum concentration required to kill an entire population ([19]; Exhibit A1): <500 µg/mL
MIC, minimum concentration required to inhibit growth ([19]; Exhibit A2): <500 µg/mL
MBC, minimum concentration required to kill an entire population ([20]; Exhibit A1): <500 µg/mL
MIC, minimum concentration required to inhibit growth ([20]; Exhibit A2): <500 µg/mL
MIC, minimum concentration required to inhibit growth [21]: <500 µg/mL and 1000 µg/mL
MBC, minimum concentration required to kill an entire population ([22]; Exhibit A1): 20000 µg/mL
MIC, minimum concentration required to inhibit growth ([22]; Exhibit A2): 4000 µg/mL
MBC's, Minimum Bactericidal Concentration [23]: 6000 µg/mL
MIC's, Minimum Inhibitory Concentration [23]: 500 µg/mL
MIC's, Minimum Inhibitory Concentration [24]: 500 µg/mL
MIC's, Minimum Inhibitory Concentration [25]: 500 µg/mL
MBC's, Minimum Bactericidal Concentration [26]: 500 µg/mL
MIC's, Minimum Inhibitory Concentration [26]: 500 µg/mL
MBC's, Minimum Bactericidal Concentration [27]: 8000 µg/mL
MIC's, Minimum Inhibitory Concentration [27]: 500 µg/mL
MBC's, Minimum Bactericidal Concentration [28]: 10000 µg/mL
MIC's, Minimum Inhibitory Concentration [28]: 500 µg/mL
MIC values compared with the other two EDTA compounds ([29]; Exhibit C): lower than the MIC values for the other two EDTA compounds
MBC values against yeasts compared with bacteria ([29]; Exhibit C versus Gram negative and Gram positive organisms): comparable to the MBC values for the Gram negative and Gram positive organisms
